The values below come from ChEMBL document CHEMBL5058646 (2022).

The experiment addresses B-cell lymphoma 6 protein (Homo sapiens, UniProt P41182). The experiment is described as follows: TR-FRET.

SMILES strings stand for the structures.

For `C[C@@H]1CN(c2nccc(Nc3ccc4c(c3)n(CCC(C)(C)O)c(=O)n4C)n2)C[C@H](C)C1(F)F`, the IC50 is recorded as 21 µM (not active).

Usually IC50 stands for the concentration that gives 50% inhibition. Lower therefore signals inhibition by little substance.
